Experimental data published in patent US20160137639A1, “TRIAZOLE-ISOXAZOLE COMPOUND AND MEDICAL USE THEREOF” (JAPAN TOBACCO INC., priority 2012, published 2016).
pEC50: −log10 of the molar value. Where two headings read alike, the source gives them in different places.

Legend:
mouse RORγ = target: T1, mouse RORγ (Mus musculus, UniProt P51450); experiment: Luciferase reporter gene assay of inhibitory effect against RORγ transcriptional activity (GAL4-mRORγ plasmid in CHO cells); assay type: cell-based; settings: for pEC50: read-out: LUC EC50 mRORg; for EC50: read-out: LUC EC50 (μM) mRORg
T1 construct: mouse, NM_011281.2 and from Ile251 to Lys516; expressed in transfected cells; host or cells: CHO cells (transient co-transfection with pG5-Luc reporter)
T1 sequence (P51450 251-516): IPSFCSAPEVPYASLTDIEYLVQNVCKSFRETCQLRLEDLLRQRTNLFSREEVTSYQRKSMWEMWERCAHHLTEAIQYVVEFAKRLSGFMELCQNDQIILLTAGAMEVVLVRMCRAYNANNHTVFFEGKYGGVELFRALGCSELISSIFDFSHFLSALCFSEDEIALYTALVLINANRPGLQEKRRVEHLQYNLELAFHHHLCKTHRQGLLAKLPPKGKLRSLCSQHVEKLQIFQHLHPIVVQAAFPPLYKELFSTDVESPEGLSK
Outline: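 CHO cells transiently co-transfected with GAL4-mouse RORγ LBD (Ile251–Lys516) and GAL4-dependent luciferase reporter; eight compound concentrations, 0.1% DMSO, 2 days at 37 °C. Luminescence as %-of-vehicle control; EC50 by curve fit, cytotoxic concentrations excluded.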

human RORγ = target: T2, human RORγ (Homo sapiens, UniProt P51449); experiment: Luciferase reporter gene assay of inhibitory effect against RORγ transcriptional activity (GAL4-hRORγ plasmid in CHO cells); assay type: cell-based; settings: for pEC50: read-out: LUC EC50 hRORg; for EC50: read-out: LUC EC50 (μM) hRORg
T2 construct: human, NM_005060.3 and from Ser253 to Lys518; expressed in transfected cells; host or cells: CHO cells (transient co-transfection with pG5-Luc reporter)
T2 sequence (P51449 253-518): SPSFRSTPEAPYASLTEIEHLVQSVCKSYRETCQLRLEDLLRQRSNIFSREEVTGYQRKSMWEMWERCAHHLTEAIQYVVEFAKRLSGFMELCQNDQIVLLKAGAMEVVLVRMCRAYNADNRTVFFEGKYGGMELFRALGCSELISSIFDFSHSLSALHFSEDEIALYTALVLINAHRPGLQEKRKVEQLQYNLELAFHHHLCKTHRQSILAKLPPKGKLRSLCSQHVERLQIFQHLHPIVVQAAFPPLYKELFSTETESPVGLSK

SMILES	pEC50 (mouse RORγ)	pEC50 (human RORγ)	EC50 (mouse RORγ) [µM]	EC50 (human RORγ) [µM]
CCO[C@@H](CC(=O)Nc1ccc(C)cc1C)c1nnc(-c2cc(CC(C)C)on2)n1C1CC1 [Example F-569]	> 5.52	> 5.52		
Cc1c(Cl)cccc1NC(=O)CCc1nnc(CC[C@H]2CC[C@H](C(F)(F)F)CC2)n1C1CC1 [Example F-250]			> 3	> 3
Cc1cc(C)c(NC(=O)C[C@H](CCO)c2nnc([C@H]3C[C@@H](CC(C)C)C3)n2C2CC2)c(F)c1 [Example F-548]	> 5.52	> 5.52		
CCC1(CC)CC(c2nnc(CCC(=O)Nc3ccc(C)cc3C)n2C2CC2)C1 [Example F-451]			< 3	< 3
Cc1ccc(NC(=O)C[C@H](CCO)c2nnc([C@H]3C[C@@H](CC(C)C)C3)n2C2CC2)c(C)c1 [Example F-361]			< 3	< 3
Cc1ccc(NC(=O)[C@H]2CN(S(=O)(=O)C(F)F)C[C@@H]2c2nnc([C@H]3C[C@@H](CC(C)(C)C)C3)n2C2CC2)c(C)c1 [Example F-550]	> 5.52	> 5.52		
Cc1ccc(NC(=O)[C@H]2CC(O)(C(F)(F)F)C[C@@H]2c2nnc([C@H]3C[C@@H](CC(C)C)C3)n2C2CC2)c(C)c1 (mixture of isomers) [Example F-545]	> 5.52	> 5.52		
Cc1ccc(NC(=O)[C@H]2CN(CC(F)(F)F)C[C@@H]2c2nnc([C@H]3C[C@@H](CC(C)(C)C)C3)n2C2CC2)c(C)c1 [Example F-541]	> 5.52	> 5.52		
CCn1c(CCC(=O)Nc2ccc(Cl)cc2Cl)nnc1C1Cc2ccccc2C1 [Example F-31]			> 3	> 3
Cc1ccc(NC(=O)[C@H]2CC(=O)C[C@@H]2c2nnc([C@H]3C[C@@H](CC(C)C)C3)n2C2CC2)c(C)c1 (racemic) [Example F-533]	> 5.52	> 5.52		
Cc1ccc(NC(=O)C[C@H](CCC(=O)O)c2noc(-c3ncc(CC(C)C)s3)c2C2CC2)c(Cl)c1 [Example E-15]			< 3	< 3
Cc1ccc(NC(=O)C[C@H](OCC(F)(F)F)c2nnc([C@H]3C[C@@H](CC(C)C)C3)n2C2CC2)c(C)c1 [Example F-609]	> 5.52	> 5.52		
CCn1c(CCC(=O)Nc2cccc(Cl)c2C)nnc1C1Cc2ccccc2C1 [Example F-3]			< 3	> 3
Cc1ccc(NC(=O)CCc2nnc(CCC3(C)CCCCC3)n2C2CC2)c(C)c1 [Example F-269]			< 3	< 3
Cc1ccc(NC(=O)C[C@H](CCCO)c2noc([C@H]3C[C@@H](CC(C)(C)C)C3)c2C2CC2)c(C)n1 [Example F-689]	> 5.52	> 5.52		
Cc1ccc(NC(=O)C[C@H](CCC(=O)O)c2noc(-c3cc(C4CC(F)(F)C4)on3)c2C2CC2)c(Cl)c1 [Example E-47]			< 3	< 3
Cc1c(Cl)cccc1NC(=O)CC(CCN)c1nnc(CCCC(C)C)n1C1CC1 (racemic) [Example F-225]			> 3	> 3
Cc1ccc(NC(=O)C[C@H](CCO)c2nnc(CCCC(C)(C)C)n2C2CC2)c(C)c1 [Example F-327]			< 3	< 3
CC(=O)N1C[C@@H](C(=O)Nc2ccc(C)cc2C)[C@H](c2nnc(CCC3CCCCC3)n2C2CC2)C1 [Example F-375]			> 3	> 3
Cc1ccc(NC(=O)CC(CCO)c2nnc(CCC3CCCCC3)n2C2CC2)c(C)c1 (racemic) [Example F-248]			< 3	< 3
Cc1cccnc1NC(=O)CCc1nnc(CCC(C)C)n1C1CC1 [Example F-80]			> 3	> 3
Cc1ccc(NC(=O)C[C@H](CC(C)C)c2nnc(-c3cc(CC(C)C)on3)n2C2CC2)c(C)c1 [Example F-586]	> 5.52	> 5.52		
Cc1c(F)cccc1CNC(=O)CCc1nnc(CCC(C)C)n1C1CC1 [Example F-126]			> 3	> 3
Cc1ccc(Br)cc1NC(=O)CCc1nnc(CCC(C)C)n1C1CC1 [Example F-140]			> 3	> 3
COc1cc(C)ccc1CNC(=O)[C@H]1CN(C(C)=O)C[C@@H]1c1nnc(CCCC(C)C)n1C1CC1 (racemic) [Example F-279]			< 3	< 3
CCC(C)CCc1nnc(CCC(=O)Nc2cccc(Cl)c2C)n1C1CC1 (racemic) [Example F-235]			< 3	< 3

SMILES	pEC50 (mouse RORγ)	pEC50 (human RORγ)	EC50 (mouse RORγ) [µM]	EC50 (human RORγ) [µM]
Cc1ccc(NC(=O)C[C@H](CCc2noc(=O)[nH]2)c2noc([C@H]3C[C@@H](CC(C)C)C3)c2C2CC2)c(C)c1 [Example F-643]	> 5.52	> 5.52		
CC(C)(C)Cc1cc(-c2onc([C@@H](CCC(=O)O)CC(=O)Nc3ccc(Cl)cc3F)c2C2CC2)no1 [Example E-56]			< 3	< 3
CC(C)(C)C[C@H]1C[C@@H](c2onc(CCC(=O)Nc3ccc(Cl)cc3Cl)c2C2CC2)C1 [Example F-720]	> 5.52	> 5.52		
Cc1ccc(NC(=O)[C@@H]2CC(C)(O)C[C@H]2c2nnc([C@H]3C[C@@H](CC(C)C)C3)n2C2CC2)c(C)c1 (single isomer, unassigned) [Example F-564]	> 5.52	> 5.52		
CC(=O)N1C[C@@H](C(=O)Nc2ccc(C)cc2C)[C@H](c2nnc([C@H]3C[C@@H](OC(C)C)C3)n2C2CC2)C1 [Example F-337]			> 3	> 3
Cc1ccc(NC(=O)CC(CC(=O)N2CCCC2)c2nnc([C@H]3C[C@@H](CC(C)C)C3)n2C2CC2)c(C)c1 (mixture of isomers) [Example F-501]	> 5.52	> 5.52		
Cc1ccc(NC(=O)C[C@H](C[C@H](C)O)c2nnc([C@H]3C[C@@H](CC(C)C)C3)n2C2CC2)c(C)c1 [Example F-574]	> 5.52	> 5.52		
CCn1c(CCC(=O)Nc2ccc(C)cc2C)nnc1CCC(C)(C)C [Example F-47]			< 3	> 3
Cc1ccc(NC(=O)[C@H]2CCCN(C)[C@@H]2c2nnc(CCCC(C)(C)C)n2C2CC2)c(C)c1 [Example F-310]			< 3	< 3
COC(C)(C)CCCc1nnc([C@H]2CN(C(C)=O)C[C@@H]2C(=O)Nc2ccc(C)cc2C)n1C1CC1 (racemic) [Example F-290]			> 3	> 3
COc1cc(C)ccc1CNC(=O)[C@H]1CCN(C(C)=O)[C@@H]1c1nnc(CCC2CCCCC2)n1C1CC1 [Example F-228]			< 3	< 3
COc1cc(C)ccc1CNC(=O)CCc1nnc(CCC(C)C)n1C1CC1 [Example F-148]			< 3	< 3
CCc1ccc(CNC(=O)CCc2nnc(CCC(C)C)n2C2CC2)cc1 [Example F-124]			> 3	> 3
CC(C)(CO)C[C@H]1C[C@@H](c2onc([C@@H](CCC(=O)O)CC(=O)Nc3ccc(CO)cc3Cl)c2C2CC2)C1 [Example F-726]	< 5.52	< 5.52		
COc1cc(C)ccc1CNC(=O)CC(CCO)c1nnc(CCC(C)C)n1C1CC1 (racemic) [Example F-176]			> 3	> 3
CCn1c(CCC(=O)Nc2cccc(Cl)c2Cl)nnc1C1Cc2ccccc2C1 [Example F-30]			< 3	> 3
COc1cccc(NC(=O)[C@H]2CN(C(C)=O)C[C@@H]2c2nnc(CCCC(C)(C)C)n2C2CC2)c1C (racemic) [Example F-332]			< 3	< 3
Cc1ccc(NC(=O)CCc2noc([C@H]3C[C@@H](CC(C)C)C3)c2CCC(=O)O)c(C)c1 [Example F-664]	< 5.52	< 5.52		
Cc1cc(Cl)ccc1NC(=O)C[C@H](CC(C)C)c1nnc(-c2cc(CC(C)(C)C)on2)n1C1CC1 [Example F-626]	> 5.52	> 5.52		
Cc1ccc(NC(=O)C[C@H](CN2CC(=O)NC2=O)c2nnc([C@H]3C[C@@H](CC(C)C)C3)n2C2CC2)c(C)c1 [Example F-479]			< 3	< 3
CC(C)(C)CCc1cc(-c2onc([C@@H](CCC(=O)O)CC(=O)Nc3ccc(F)cc3Cl)c2C2CC2)no1 [Example E-34]			< 3	< 3
CC(F)(F)c1c([C@@H](CCC(=O)O)CC(=O)Nc2ccc(Cl)cc2F)noc1-c1cc(C(F)(F)C(C)(C)C)on1 [Example E-66]			< 3	< 3
Cc1ccc(NC(=O)C[C@H](CC(F)(F)F)c2nnc(-c3cc(CC(C)C)on3)n2C2CC2)c(C)c1 [Example F-567]	> 5.52	> 5.52		
COc1cc(C)c(C)cc1CNC(=O)CCc1nnc(CCC(C)C)n1C1CC1 [Example F-205]			> 3	> 3
Cc1c(Cl)cccc1NC(=O)CCc1nnc(CCC(C)(C)C(=O)N(C)C)n1C1CC1 [Example F-239]			> 3	> 3
